Measurements published in US20240116985A1, “STAPLED PEPTIDES AND METHODS THEREOF” (priority 2020, published 2024).

Target: T1, full-length beta-Catenin (Uniprot ID P35222) (Homo sapiens, UniProt P35222)
T1 construct: 10 nM full-length beta-Catenin (Uniprot ID P35222)
T1 sequence (P35222 1-781): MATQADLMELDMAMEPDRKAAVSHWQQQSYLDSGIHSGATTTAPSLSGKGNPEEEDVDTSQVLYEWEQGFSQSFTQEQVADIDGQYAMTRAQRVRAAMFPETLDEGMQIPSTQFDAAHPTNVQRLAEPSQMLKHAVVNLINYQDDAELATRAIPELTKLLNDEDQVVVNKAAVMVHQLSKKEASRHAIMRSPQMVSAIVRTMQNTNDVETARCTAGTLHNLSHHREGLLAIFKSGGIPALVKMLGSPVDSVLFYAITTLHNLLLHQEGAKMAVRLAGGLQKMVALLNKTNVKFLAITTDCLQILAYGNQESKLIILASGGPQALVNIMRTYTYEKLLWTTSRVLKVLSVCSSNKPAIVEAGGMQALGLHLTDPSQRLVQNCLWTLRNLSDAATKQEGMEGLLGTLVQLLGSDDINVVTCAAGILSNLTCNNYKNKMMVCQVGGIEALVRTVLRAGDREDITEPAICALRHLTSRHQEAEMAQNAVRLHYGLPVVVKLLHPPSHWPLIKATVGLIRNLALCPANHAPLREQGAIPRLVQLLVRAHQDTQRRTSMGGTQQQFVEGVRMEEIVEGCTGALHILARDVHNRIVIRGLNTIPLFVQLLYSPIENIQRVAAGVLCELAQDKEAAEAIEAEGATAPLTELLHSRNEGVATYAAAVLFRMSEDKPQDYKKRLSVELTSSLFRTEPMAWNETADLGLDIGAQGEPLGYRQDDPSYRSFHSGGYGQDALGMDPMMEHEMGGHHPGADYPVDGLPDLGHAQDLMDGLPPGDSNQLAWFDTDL
Assay: Fluorescence polarization IC50 (beta-catenin / 5FAM-TCF4 10-53 competition)
Format: binding
Conditions: fluorescence polarization; read-out: beta-Catenin FP IC50

SMILES	IC50
CC(=O)N1CCC[C@]12CC=CCCCC1(CCCC=CCCCOC(=O)N3CC[C@@](C(=O)N[C@@H](Cc4ccsc4)C(=O)N[C@@H](Cc4csc5ccccc45)C(=O)N[C@@H](CCC(N)=O)C(N)=O)(C3)NC(=O)[C@H](CC(N)=O)NC(=O)[C@H](Cc3ccccc3N)NC(=O)[C@H](C)NC(=O)[C@H](C)NC(=O)[C@H](CC(=O)O)NC(=O)[C@H](CC(=O)O)NC1=O)NC(=O)[C@H](CC(C)(C)C)NC(=O)[C@H](CC(=O)O)NC2=O (stereo partly drawn) [I-1728, Ac-PL3-Asp-Npg-B5-Asp-Asp-Ala-Ala-2NH2F-Asn-PyrS2-3Thi-BztA-Gln-NH2]	14 nM
CC(=O)N(CC(=O)O)C[C@@H]1NC(=O)[C@H](CC(=O)O)NC(=O)C2(CCCC=CCCCOC(=O)N3CC[C@@](C(=O)N[C@@H](Cc4ccsc4)C(=O)N[C@@H](Cc4csc5ccccc45)C(=O)N[C@@H](CCC(N)=O)C(N)=O)(C3)NC(=O)[C@H](CC(C)C)NC(=O)[C@H](Cc3ccccc3)NC(=O)[C@H](C)NC(=O)[C@H](C)NC1=O)CCCC=CC[C@]1(CCCN1C(C)=O)C(=O)N[C@@H](CC(=O)O)C(=O)N[C@@H](CC(C)(C)C)C(=O)N2 (stereo partly drawn) [I-1729, Ac-PL3-Asp-Npg-B5-Asp-[Ac]GA-Ala-Ala-Phe-Leu-PyrS2-3Thi-BztA-Gln-NH2]	9 nM
CC(=O)N1CCC[C@]12CC=CCCCC1(CCCC=CCCCOC(=O)N3CC[C@@](C(=O)N[C@@H](Cc4ccsc4)C(=O)N[C@@H](Cc4csc5ccccc45)C(=O)N[C@@H](CCC(N)=O)C(N)=O)(C3)NC(=O)[C@H](CC(C)C)NC(=O)[C@H](Cc3ccccc3)NC(=O)[C@H](C)NC(=O)[C@H](C)NC(=O)[C@H](CN(CC(=O)O)C(=O)C(F)(F)F)NC(=O)[C@H](CC(=O)O)NC1=O)NC(=O)[C@H](CC(C)(C)C)NC(=O)[C@H](CC(=O)O)NC2=O (stereo partly drawn) [I-1730, Ac-PL3-Asp-Npg-B5-Asp-[CF3CO]GA-Ala-Ala-Phe-Leu-PyrS2-3Thi-BztA-Gln-NH2]	38 nM
CC(=O)N1CCC[C@]12CC=CCCCC1(CCCC=CCCCOC(=O)N3CC[C@@](C(=O)N[C@@H](Cc4ccccc4)C(=O)N[C@@H](Cc4csc5ccccc45)C(=O)N[C@@H](CCC(N)=O)C(N)=O)(C3)NC(=O)[C@H](CC(N)=O)NC(=O)[C@H](Cc3ccccc3)NC(=O)[C@H](C)NC(=O)[C@H](C)NC(=O)[C@H]([C@@H](C)O)NC(=O)[C@H](CC(N)=O)NC1=O)NC(=O)[C@H](CC(C)(C)C)NC(=O)[C@H](CC(=O)O)NC2=O (stereo partly drawn) [I-1735, Ac-PL3-Asp-Npg-B5-Asn-Thr-Ala-Ala-Phe-Asn-PyrS2-Phe-BztA-Gln-NH2]	667 nM
CC(=O)N1CCC[C@]12CC=CCCCC1(CCCC=CCCCOC(=O)N3CC[C@@](C(=O)N[C@@H](Cc4cccs4)C(=O)N[C@@H](Cc4csc5ccccc45)C(=O)N[C@@H](CCC(N)=O)C(N)=O)(C3)NC(=O)[C@H](CC(N)=O)NC(=O)[C@H](Cc3ccccc3)NC(=O)[C@H](C)NC(=O)[C@H](C)NC(=O)[C@H]([C@@H](C)O)NC(=O)[C@H](CC(N)=O)NC1=O)NC(=O)[C@H](CC(C)(C)C)NC(=O)[C@H](CC(=O)O)NC2=O (stereo partly drawn) [I-1736, Ac-PL3-Asp-Npg-B5-Asn-Thr-Ala-Ala-Phe-Asn-PyrS2-2Thi-BztA-Gln-NH2]	458 nM
CC(=O)N1CCC[C@]12CC=CCCCC1(CCCC=CCCCOC(=O)N3CC[C@@](C(=O)N[C@@H](Cc4ccccc4C)C(=O)N[C@@H](Cc4csc5ccccc45)C(=O)N[C@@H](CCC(N)=O)C(N)=O)(C3)NC(=O)[C@H](CC(N)=O)NC(=O)[C@H](Cc3ccccc3)NC(=O)[C@H](C)NC(=O)[C@H](C)NC(=O)[C@H]([C@@H](C)O)NC(=O)[C@H](CC(N)=O)NC1=O)NC(=O)[C@H](CC(C)(C)C)NC(=O)[C@H](CC(=O)O)NC2=O (stereo partly drawn) [I-1737, Ac-PL3-Asp-Npg-B5-Asn-Thr-Ala-Ala-Phe-Asn-PyrS2-2MeF-BztA-Gln-NH2]	518 nM
CC(=O)N1CCC[C@]12CC=CCCCC1(CCCC=CCCCOC(=O)N3CC[C@@](C(=O)N[C@@H](Cc4ccccc4C(F)(F)F)C(=O)N[C@@H](Cc4csc5ccccc45)C(=O)N[C@@H](CCC(N)=O)C(N)=O)(C3)NC(=O)[C@H](CC(N)=O)NC(=O)[C@H](Cc3ccccc3)NC(=O)[C@H](C)NC(=O)[C@H](C)NC(=O)[C@H]([C@@H](C)O)NC(=O)[C@H](CC(N)=O)NC1=O)NC(=O)[C@H](CC(C)(C)C)NC(=O)[C@H](CC(=O)O)NC2=O (stereo partly drawn) [I-1738, Ac-PL3-Asp-Npg-B5-Asn-Thr-Ala-Ala-Phe-Asn-PyrS2-2F3MeF-BztA-Gln-NH2]	1060 nM
CC(=O)N1CCC[C@]12CC=CCCCC1(CCCC=CCCCOC(=O)N3CC[C@@](C(=O)N[C@@H](Cc4cccc(C)c4)C(=O)N[C@@H](Cc4csc5ccccc45)C(=O)N[C@@H](CCC(N)=O)C(N)=O)(C3)NC(=O)[C@H](CC(N)=O)NC(=O)[C@H](Cc3ccccc3)NC(=O)[C@H](C)NC(=O)[C@H](C)NC(=O)[C@H]([C@@H](C)O)NC(=O)[C@H](CC(N)=O)NC1=O)NC(=O)[C@H](CC(C)(C)C)NC(=O)[C@H](CC(=O)O)NC2=O (stereo partly drawn) [I-1739, Ac-PL3-Asp-Npg-B5-Asn-Thr-Ala-Ala-Phe-Asn-PyrS2-3MeF-BztA-Gln-NH2]	3650 nM
CC(=O)N1CCC[C@]12CC=CCCCC1(CCCC=CCCCOC(=O)N3CC[C@@](C(=O)N[C@@H](Cc4ccsc4)C(=O)N[C@@H](Cc4csc5ccccc45)C(=O)N[C@@H](CCC(N)=O)C(N)=O)(C3)NC(=O)[C@H](Cc3c[nH]c4ccccc34)NC(=O)[C@H](Cc3ccccc3)NC(=O)[C@H](C)NC(=O)[C@H](C)NC(=O)[C@H]([C@@H](C)O)NC(=O)[C@H](CC(N)=O)NC1=O)NC(=O)[C@H](CC(C)(C)C)NC(=O)[C@H](CC(=O)O)NC2=O (stereo partly drawn) [I-1741, Ac-PL3-Asp-Npg-B5-Asn-Thr-Ala-Ala-Phe-Trp-PyrS2-3Thi-BztA-Gln-NH2]	4390 nM
CC(=O)N1CCC[C@]12CC=CCCCC1(CCCC=CCCCOC(=O)N3CC[C@@](C(=O)N[C@@H](Cc4ccsc4)C(=O)N[C@@H](Cc4csc5ccccc45)C(N)=O)(C3)NC(=O)[C@H](CC(N)=O)NC(=O)[C@H](Cc3ccccc3)NC(=O)[C@H](C)NC(=O)[C@H](C)NC(=O)[C@H]([C@@H](C)O)NC(=O)[C@H](CC(N)=O)NC1=O)NC(=O)[C@H](CC(C)(C)C)NC(=O)[C@H](CC(=O)O)NC2=O (stereo partly drawn) [I-1742, Ac-PL3-Asp-Npg-B5-Asn-Thr-Ala-Ala-Phe-Asn-PyrS2-3Thi-BztA-NH2]	867 nM
CC(=O)N1CCC[C@]12CC=CCCCC1(CCCC=CCCCOC(=O)N3CC[C@@](C(=O)N[C@@H](Cc4ccsc4)C(=O)N[C@@H](Cc4csc5ccccc45)C(=O)N[C@@H](CCCNC(=N)N)C(N)=O)(C3)NC(=O)[C@H](CC(N)=O)NC(=O)[C@H](Cc3ccccc3)NC(=O)[C@H](C)NC(=O)[C@H](C)NC(=O)[C@H]([C@@H](C)O)NC(=O)[C@H](CC(N)=O)NC1=O)NC(=O)[C@H](CC(C)(C)C)NC(=O)[C@H](CC(=O)O)NC2=O (stereo partly drawn) [I-1743, Ac-PL3-Asp-Npg-B5-Asn-Thr-Ala-Ala-Phe-Asn-PyrS2-3Thi-BztA-Arg-NH2]	469 nM
CC(=O)N1CCC[C@]12CC=CCCCC1(CCCC=CCCCOC(=O)N3CC[C@@](C(=O)N[C@@H](Cc4ccsc4)C(=O)N[C@@H](Cc4csc5ccccc45)C(=O)N[C@@H](Cc4ccccc4)C(N)=O)(C3)NC(=O)[C@H](CC(N)=O)NC(=O)[C@H](Cc3ccccc3)NC(=O)[C@H](C)NC(=O)[C@H](C)NC(=O)[C@H]([C@@H](C)O)NC(=O)[C@H](CC(N)=O)NC1=O)NC(=O)[C@H](CC(C)(C)C)NC(=O)[C@H](CC(=O)O)NC2=O (stereo partly drawn) [I-1744, Ac-PL3-Asp-Npg-B5-Asn-Thr-Ala-Ala-Phe-Asn-PyrS2-3Thi-BztA-Phe-NH2]	363 nM
CC(=O)N1CCC[C@]12CC=CCCCC1(CCCC=CCCCOC(=O)N3CC[C@@](C(=O)N[C@@H](Cc4ccsc4)C(=O)N[C@@H](Cc4csc5ccccc45)C(=O)N[C@H](C(N)=O)[C@@H](C)O)(C3)NC(=O)[C@H](CC(N)=O)NC(=O)[C@H](Cc3ccccc3)NC(=O)[C@H](C)NC(=O)[C@H](C)NC(=O)[C@H]([C@@H](C)O)NC(=O)[C@H](CC(N)=O)NC1=O)NC(=O)[C@H](CC(C)(C)C)NC(=O)[C@H](CC(=O)O)NC2=O (stereo partly drawn) [I-1745, Ac-PL3-Asp-Npg-B5-Asn-Thr-Ala-Ala-Phe-Asn-PyrS2-3Thi-BztA-Thr-NH2]	402 nM
CC(=O)N1CCC[C@]12CC=CCCCC1(CCCC=CCCCOC(=O)N3CC[C@@](C(=O)N[C@@H](Cc4ccsc4)C(=O)N[C@@H](Cc4csc5ccccc45)C(=O)N[C@@H](CC(N)=O)C(N)=O)(C3)NC(=O)[C@H](CC(N)=O)NC(=O)[C@H](Cc3ccccc3)NC(=O)[C@H](C)NC(=O)[C@H](C)NC(=O)[C@H]([C@@H](C)O)NC(=O)[C@H](CC(N)=O)NC1=O)NC(=O)[C@H](CC(C)(C)C)NC(=O)[C@H](CC(=O)O)NC2=O (stereo partly drawn) [I-1746, Ac-PL3-Asp-Npg-B5-Asn-Thr-Ala-Ala-Phe-Asn-PyrS2-3Thi-BztA-Asn-NH2]	235 nM
CC(=O)N1CCC[C@]12CC=CCCCC1(CCCC=CCCCOC(=O)N3CC[C@@](C(=O)N[C@@H](Cc4ccsc4)C(=O)N[C@@H](Cc4csc5ccccc45)C(=O)N[C@@H](Cc4ccccc4)C(N)=O)(C3)NC(=O)[C@H](CC(C)C)NC(=O)[C@H](Cc3ccccc3)NC(=O)[C@H](C)NC(=O)[C@H](C)NC(=O)[C@H](CN(CC(=O)O)CC(F)(F)F)NC(=O)[C@H](CC(=O)O)NC1=O)NC(=O)[C@H](CC(C)(C)C)NC(=O)[C@H](CC(=O)O)NC2=O (stereo partly drawn) [I-1749, Ac-PL3-Asp-Npg-B5-Asp-TfeGA-Ala-Ala-Phe-Leu-PyrS2-3Thi-BztA-Phe-NH2]	145 nM
